Measured values: PMC12123458, “Unraveling Small Molecule-Mediated Sirtuin 3 Activation at a Distinct Binding Site for Cardioprotective Therapies” (ACS Central Science, 2025)

Tests used:
H9c2 cells [1] = experiment: Dox-induced cardiotoxicity model in H9c2 cells, MTT cell viability; format: cell-based
Procedure: H9c2 cardiomyocytes were cultured in high-glucose DMEM supplemented with 10% FBS and 1% penicillin/streptomycin under a 5% CO2 atmosphere at 37 °C. Cells were seeded at 5 × 10^4 cells/mL in 96-well plates and treated with 1 μM Dox for 24 h. After Dox treatment, cell viability was quantified via MTT assay; 3-(4,5-dimethythiazol-2-yl)-2,5-diphenyltetrazolium bromide (MTT, 5 mg/mL) was applied for 4 h, followed by DMSO dissolution of formazan crystals. Additionally, cells were pretreated with 10 μM SKLB-11A for 24 h prior to 1 μM Dox exposure, and viability was similarly assessed using MTT.

[2] = system: myocardial ischemia/reperfusion (I/R) injury model; experiment: Mouse model of myocardial I/R injury; format: in vivo, C57BL/6J mice
wild-type SIRT3 = target: T1, wild-type SIRT3 (Homo sapiens, UniProt Q9NTG7); experiment: BLI binding of SKLB-11A to wild-type SIRT3; details: read-out: dissociation constant, wild-type SIRT3
T1 sequence (Q9NTG7 1-399): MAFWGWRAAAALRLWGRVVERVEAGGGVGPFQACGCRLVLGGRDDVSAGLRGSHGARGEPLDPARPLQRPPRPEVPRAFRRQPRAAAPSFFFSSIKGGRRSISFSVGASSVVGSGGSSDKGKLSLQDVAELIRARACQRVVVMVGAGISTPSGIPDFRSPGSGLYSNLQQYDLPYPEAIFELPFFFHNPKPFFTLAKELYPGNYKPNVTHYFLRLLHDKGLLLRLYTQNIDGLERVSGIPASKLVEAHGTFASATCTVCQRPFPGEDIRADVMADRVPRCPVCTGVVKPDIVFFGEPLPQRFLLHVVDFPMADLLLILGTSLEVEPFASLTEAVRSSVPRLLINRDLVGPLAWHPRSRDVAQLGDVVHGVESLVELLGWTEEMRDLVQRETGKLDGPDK
Procedure: Binding kinetics of SIRT3 with various compounds were quantified using SSA biosensors on an Octet Red96 system (ForteBio). The assays occurred in 96-well plates, recording wavelength shifts in real-time. Ambient temperature was maintained at 25 °C, with plate agitation at 1000 rpm, and a reaction volume of 200 μL per well. SIRT3 protein and test compounds were prepared in phosphate-buffered saline (PBS, pH 7.4). Biosensors were equilibrated in PBS for 10 min before immobilizing SIRT3 (0.9 μg/mL) for 180 s, followed by a 120-s PBS wash. […] Data analysis was performed using ForteBio’s Octet RED software.

H9c2 cells [3] = experiment: ATP content in Dox-treated H9c2 cells; format: cell-based; details: 10 μM
Procedure: ATP concentrations were detected by a firefly luciferin/luciferase-based ATP bioluminescence assay kit (Beyotime, China). The ATP contents were determined as nmol/mg protein by using SYNERGY 4 Microplate Reader (BioTek Instruments).

[4] = system: acetylated MnSOD (K68 and K122) in H9c2 cells; experiment: Western blot of MnSOD, SIRT3 and acetylated MnSOD in H9c2 cells; format: cell-based; details: 24 h
Procedure: Proteomic analysis was conducted on H9c2 cells and murine cardiac tissues. Protein lysates were resolved via SDS-PAGE and transferred onto PVDF membranes. […] After washing, membranes were probed with secondary antibodies for 1 h at room temperature. Detection was facilitated by an ECL kit, with densitometry performed using ImageJ software to quantify protein expression, normalized against controls. The antibodies employed included: anti-SIRT3 (2627, Cell Signaling Technology), anti-acetylated lysine (9441, CST), anti-Ac.K68-MnSOD2 (ab137037, Abcam), anti-Ac.K122-MnSOD2 (ab214675, Abcam), anti-MnSOD2 (13141, CST), anti-LC3B (3868, CST), anti-p62 (8025, CST), anti-PINK1 (6946, CST), anti-Parkin (4211, CST), and anti-β-actin (ab8226, Abcam).

SIRT1 = target: T2, SIRT1 (Homo sapiens, UniProt Q96EB6); experiment: Coupled enzymatic assay, acetylated p53-K381 substrate; format: biochemical; details: 100 μM
T2 sequence (Q96EB6 1-747): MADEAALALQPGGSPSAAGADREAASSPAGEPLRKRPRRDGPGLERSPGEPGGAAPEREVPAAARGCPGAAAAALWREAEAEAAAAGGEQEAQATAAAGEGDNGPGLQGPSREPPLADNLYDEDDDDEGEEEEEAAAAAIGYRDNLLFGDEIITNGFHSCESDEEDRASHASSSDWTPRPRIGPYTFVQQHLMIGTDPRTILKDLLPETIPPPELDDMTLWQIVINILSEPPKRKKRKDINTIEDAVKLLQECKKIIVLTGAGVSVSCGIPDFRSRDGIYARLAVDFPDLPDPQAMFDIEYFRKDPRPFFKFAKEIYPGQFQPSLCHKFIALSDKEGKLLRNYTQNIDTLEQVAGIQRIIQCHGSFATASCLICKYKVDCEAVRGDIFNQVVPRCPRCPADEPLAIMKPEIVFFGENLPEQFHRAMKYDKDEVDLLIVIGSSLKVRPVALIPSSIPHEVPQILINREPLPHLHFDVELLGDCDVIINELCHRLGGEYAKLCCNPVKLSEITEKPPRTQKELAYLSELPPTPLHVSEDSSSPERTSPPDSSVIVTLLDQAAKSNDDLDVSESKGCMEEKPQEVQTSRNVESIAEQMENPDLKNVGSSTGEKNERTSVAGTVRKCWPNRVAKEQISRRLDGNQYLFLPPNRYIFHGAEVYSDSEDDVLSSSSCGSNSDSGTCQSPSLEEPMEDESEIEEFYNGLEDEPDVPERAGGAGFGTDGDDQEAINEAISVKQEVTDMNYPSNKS
From the text: (§1) Additionally, we used surface plasmon resonance (SPR) to measure the binding of SKLB-11A to immobilized SIRT3. […] We next evaluated the selectivity of SKLB-11A for different SIRT family members. […] We next examined the functional specificity of SKLB-11A using coupled enzymatic assays with isoform-specific, physiologically relevant substrates: acetylated p53-K381 for SIRT1, acetylated α-tubulin-K25 for SIRT2, acetylated MnSOD-K122 for SIRT3, and succinylated CPS1-K537 for SIRT5 (Supplementary Table S3). […] Using Schrödinger molecular docking simulations, we assessed the binding interactions of SKLB-11A with SIRT isoforms.

SIRT3 = target: T3, SIRT3 (Homo sapiens, UniProt Q9NTG7); experiment: Coupled enzymatic assay, acetylated MnSOD-K122 substrate; format: biochemical; details: 100 μM
T3 construct: purchased Enzo Life Sciences BML-AK557-0001
T3 sequence (Q9NTG7 1-399): T1 sequence (Q9NTG7 1-399)
From the text: as §1

COC(=O)c1c(N)n(Cc2ccc(F)cc2)c2nc3ccccc3nc12 [SKLB-11A, Methyl 2-amino-1-(4-fluorobenzyl)-1H-pyrrolo[2,3-b]quinoxaline-3-carboxylate]
protective effects on H9c2 cells compared to the positive control compounds (H9c2 cells [1]; Dox-treated H9c2, MTT): slightly better protective effects | viability at 10 µM (H9c2 cells [1]; Rattus norvegicus, H9c2, 10 µM pretreatment 24 h, then 1 µM Dox 24 h, MTT, Model (Dox) = Dox alone, read-out: Cardiomyocyte survival rate at 10 uM (%)): 78.88 ± 0.65% | cardioprotective effects in H9c2 cells with reduced SIRT3 expression (H9c2 cells [1]; SIRT3 knockdown by shRNA, cell viability): significantly diminished | I/R-induced elevations in serum LDH, CK-MB, BNP ([2]; 20 mg/kg ig, 24 h after I/R surgery): partially reversed | infarct size ([2]; 20 mg/kg ig, Evans blue/TTC, 24 h after I/R, vs I/R group): significant reduction in infarcted areas | I/R-induced cardiac fibrosis ([2]; 20 mg/kg ig, Masson's trichrome, 28 d after I/R): markedly reduced | cardiac function (EF and FS) ([2]; 20 mg/kg/day, ig, 1 week, I/R mice): restored cardiac function | Kd (wild-type SIRT3): 33.1 µM | ATP levels (H9c2 cells [3]): capable of increasing ATP levels | SIRT3 protein levels [4]: did not alter SIRT3 protein levels | deacetylation of MnSOD at K122 and K68 [4]: induced deacetylation at K122 and K68 | effect on basal SIRT1 deacetylation activity (SIRT1): no statistically significant effects | effect on SIRT3 deacetylation activity (SIRT3): pronounced activation
